Data set [1] is described as follows: Oral bioavailability. The settings on record: in vivo.
The test system of data set [2] is SMARCA2/SMARCA4 dual loss NSCLC cell line xenografts. As to the kind of experiment: NSCLC xenograft model in vivo. The settings on record: ~250 mg/kg body weight.

SMILES strings stand for the structures.

With `CCN(c1cc(-c2ccc(CN3CCOCC3)cc2)cc(C(=O)NCc2c(C)cc(C)[nH]c2=O)c1C)C1CCOCC1` [Compound 44, tazemetostat], the oral bioavailability result in data set [1] is listed as “orally bioavailable”. Also, the tumor growth inhibition entry in data set [2] (dual loss xenografts compared with SMARCA4 single loss xenografts) was “more prominent”. For the same molecule, in data set [2] (in two of the four SMARCA2/SMARCA4 dual loss cell lines), the tumor regression entry is given as “tumor regression was observed”.

These data come from US20220175771A1, “CANCER TREATMENT MODALITIES” (priority 2017, published 2022).
